Measured values from patent publication US8754242B2, “Herbicides” (Syngenta Crop Protection LLC, priority 2007, dated 2014).

How the values were obtained:
Format in all cases: in vivo
[1] = tested on: Avena fatua (AVEFA); experiment: Test Example 1 pre-emergence herbicidal activity; details: Avena fatua, 480 h, rate 250 g/ha, evaluated 20 days later, read-out: Pre-emergence activity AVEFA (100=total damage to plant; 0=no damage to plant)
Procedure: (§1) Monocotyledonous and dicotyledonous test plants were sown in standard soil in pots. After cultivation for one day (pre-emergence) or after 10 days cultivation (post-emergence) under controlled conditions in a glasshouse, the plants were sprayed with an aqueous spray solution derived from the formulation of the technical active ingredient in 0.6 ml acetone and 45 ml formulation solution containing 10.6% Emulsogen EL (Registry number 61791-12-6), 42.2% N-methylpyrrolidone, 42.2% dipropylene glycol monomethyl ether (Registry number 34590-94-8) and 0.2% X-77 (Registry number 11097-66-8). The test plants were then grown in a greenhouse under optimum conditions until, 15 days later for post-emergence and 20 days for pre-emergence, the test was evaluated (100=total damage to plant; 0=no damage to plant).
(§2) Alopecurus myosuroides (ALOMY), Avena fatua (AVEFA), Lolium perenne (LOLPE), Setaria faberi (SETFA), Digitaria sanguinalis (DIGSA), Echinochloa crus-galli (ECHCG)

[2] = tested on: Lolium perenne (LOLPE); experiment: Test Example 1 pre-emergence herbicidal activity; details: Lolium perenne, 480 h, rate 250 g/ha, evaluated 20 days later, read-out: Pre-emergence activity LOLPE (100=total damage to plant; 0=no damage to plant)
Procedure: as §1, §2

[3] = tested on: Digitaria sanguinalis (DIGSA); experiment: Test Example 1 pre-emergence herbicidal activity; details: Digitaria sanguinalis, 480 h, rate 250 g/ha, evaluated 20 days later, read-out: Pre-emergence activity DIGSA (100=total damage to plant; 0=no damage to plant)
Procedure: as §1, §2

[4] = tested on: Alopecurus myosuroides (ALOMY); experiment: Test Example 1 pre-emergence herbicidal activity; details: Alopecurus myosuroides, 480 h, rate 250 g/ha, evaluated 20 days later, read-out: Pre-emergence activity ALOMY (100=total damage to plant; 0=no damage to plant)
Procedure: as §1, §2

[5] = tested on: Setaria faberi (SETFA); experiment: Test Example 1 pre-emergence herbicidal activity; details: Setaria faberi, 480 h, rate 250 g/ha, evaluated 20 days later, read-out: Pre-emergence activity SETFA (100=total damage to plant; 0=no damage to plant)
Procedure: as §1, §2

[6] = tested on: Echinochloa crus-galli (ECHCG); experiment: Test Example 1 pre-emergence herbicidal activity; details: Echinochloa crus-galli, 480 h, rate 250 g/ha, evaluated 20 days later, read-out: Pre-emergence activity ECHCG (100=total damage to plant; 0=no damage to plant)
Procedure: as §1, §2

[7] = tested on: Avena fatua (AVEFA); experiment: Test Example 1 post-emergence herbicidal activity; details: 360 h, rate 125 g/ha, evaluated 15 days later, read-out: Post-emergence activity AVEFA (100=total damage to plant; 0=no damage to plant)
Procedure: as §1, §2

[8] = tested on: Lolium perenne (LOLPE); experiment: Test Example 1 post-emergence herbicidal activity; details: 360 h, rate 125 g/ha, evaluated 15 days later, read-out: Post-emergence activity LOLPE (100=total damage to plant; 0=no damage to plant)
Procedure: as §1, §2

[9] = tested on: Digitaria sanguinalis (DIGSA); experiment: Test Example 1 post-emergence herbicidal activity; details: 360 h, rate 125 g/ha, evaluated 15 days later, read-out: Post-emergence activity DIGSA (100=total damage to plant; 0=no damage to plant)
Procedure: as §1, §2

[10] = tested on: Alopecurus myosuroides (ALOMY); experiment: Test Example 1 post-emergence herbicidal activity; details: 360 h, rate 125 g/ha, evaluated 15 days later, read-out: Post-emergence activity ALOMY (100=total damage to plant; 0=no damage to plant)
Procedure: as §1, §2

[11] = tested on: Setaria faberi (SETFA); experiment: Test Example 1 post-emergence herbicidal activity; details: 360 h, rate 125 g/ha, evaluated 15 days later, read-out: Post-emergence activity SETFA (100=total damage to plant; 0=no damage to plant)
Procedure: as §1, §2

[12] = tested on: Echinochloa crus-galli (ECHCG); experiment: Test Example 1 post-emergence herbicidal activity; details: 360 h, rate 125 g/ha, evaluated 15 days later, read-out: Post-emergence activity ECHCG (100=total damage to plant; 0=no damage to plant)
Procedure: as §1, §2

Row | Structure (SMILES) | pest or weed control at 250 g/ha [1] | pest or weed control at 250 g/ha [2] | pest or weed control at 250 g/ha [3] | pest or weed control at 250 g/ha [4] | pest or weed control at 250 g/ha [5] | pest or weed control at 250 g/ha [6] | pest or weed control at 125 g/ha [7] | pest or weed control at 125 g/ha [8] | pest or weed control at 125 g/ha [9] | pest or weed control at 125 g/ha [10] | pest or weed control at 125 g/ha [11] | pest or weed control at 125 g/ha [12]
1 | CCCCC[C@]12C=C[C@H](O1)[C@@H]1C(=O)C(c3c(C)cc(C)cc3C)=C(O)[C@@H]12 (racemic) [Example T42] | 10% | 0% | 0% | 0% | 0% | 30% | 0% | 10% | 20% | 0% | 0% | 60%
2 | Cc1cc(C)c(C2=C(O)[C@H]3[C@@H](C2=O)[C@@H]2C=C[C@@]3(CSC(C)C)O2)c(C)c1 (racemic) [Example T43] | 20% | 0% | 20% | 10% | 50% | 0% | 0% | 0% | 20% | 10% | 40% | 60%
3 | CC1=C[C@@H]2O[C@H]1[C@H]1C(O)=C(c3c(C)cc(C)cc3C)C(=O)[C@H]12 (racemic) [Example T44] | 40% | 70% | 80% | 80% | 80% | 70% | 50% | 20% | 80% | 80% | 80% | 90%
4 | COc1ccc([C@@H]2C[C@@H]3O[C@H]2[C@H]2C(O)=C(c4c(C)cc(C)cc4C)C(=O)[C@H]23)cc1 (racemic) [Example T57] | 30% | 100% | 60% | 50% | 80% | 70% | 70% | 40% | 70% | 70% | 70% | 80%
5 | CSC1=C[C@@H]2O[C@@]1(C)[C@@H]1C(O)=C(c3c(C)cc(C)cc3C)C(=O)[C@H]21 (racemic) [Example T64] | 0% | 10% | 10% | 0% | 20% | 50% | 0% | 0% | 60% | 10% | 30% | 50%
6 | Cc1cc(C)c(C2=C(O)[C@@H]3[C@@H]4O[C@@H](C[C@H]4c4ccc(F)cc4)[C@@H]3C2=O)c(C)c1 (racemic) [Example T70] | 50% | 100% | 90% | 80% | 90% | 100% | 70% | 70% | 70% | 90% | 70% | 80%
7 | Cc1ccc([C@@H]2C[C@@H]3O[C@H]2[C@H]2C(O)=C(c4c(C)cc(C)cc4C)C(=O)[C@H]23)cc1 (racemic) [Example T71] | 0% | 0% | 50% | 30% | 20% | 50% | 10% | 20% | 70% | 50% | 50% | 60%
8 | C=C[C@@H]1C[C@@H]2O[C@H]1[C@H]1C(O)=C(c3c(C)cc(C)cc3C)C(=O)[C@H]12 (racemic) [Example T99] | 60% | 100% | 80% | 80% | 80% | 100% | 30% | 10% | 60% | 80% | 70% | 100%
9 | Cc1cc(C)c(C2=C(O)[C@@H]3[C@@H]4O[C@@H](C[C@H]4c4ccc(C(F)(F)F)nc4)[C@@H]3C2=O)c(C)c1 (racemic) [Example T128] | 70% | 90% | 100% | 70% | 100% | 100% | 90% | 80% | 100% | 80% | 100% | 100%
10 | CCc1cc(C)cc(CC)c1C1=C(O)[C@@H]2[C@@H]3O[C@@H](C[C@H]3c3ccc(OC(F)(F)F)cc3)[C@@H]2C1=O (racemic) [Example T159] | 60% | 40% | 70% | 50% | 70% | 70% | 70% | 40% | 100% | 90% | 100% | 100%
11 | CCc1cc(C)cc(CC)c1C1=C(O)[C@@H]2[C@@H]3O[C@@H](C[C@H]3c3ccc(Cl)cc3C)[C@@H]2C1=O (racemic) [Example T165] | 20% | 80% | 50% | 70% | 70% | 80% | 30% | 80% | 70% | 80% | 90% | 100%
12 | CCc1cc(C)cc(CC)c1C1=C(O)[C@@H]2[C@@H]3O[C@@H](C[C@H]3c3ccccc3F)[C@@H]2C1=O (racemic) [Example T170] | 40% | 90% | 70% | 80% | 70% | 80% | 70% | 80% | 40% | 80% | 40% | 100%
